# Publication PMC8427973, “Regulation of the HTRA2 Protease Activity by an Inhibitory Antibody-Derived Peptide Ligand and the Influence on HTRA2-Specific Protein Interaction Networks in Retinal Tissues” (Biomedicines, 2021)
# System: recombinant 6xHis-tag HTRA2 and its protein interaction partners in homogenized porcine retina
# Assay: Co-immunoprecipitation (Co-IP) of HTRA2 protein interaction partners, quantitative LC-MS/MS (iBAQ, volcano plot vs CTRL beads)
# Set-up: species or system house swine (Sus scrofa)
# Conditions: 2 µg HTRA2 + 10 µg compound, n = 3, vs CTRL beads
# Experimental: The retina extraction and homogenization were performed as already described in previous publications. The use of animal by-products of house swine for scientific research purposes was approved by the Kreisverwaltung Mainz-Bingen in Germany (Identification Code: DE 07 315 0006 21, approved on 13 January 2014). In brief, retinal tissues were extracted from freshly removed porcine eye bulbs (house swine, Sus scrofa domestica Linnaeus, n = 30) provided by the local slaughterhouses (Landmetzgerei Harth, Stadecken-Elsheim, Germany). Afterwards, the retinal tissues were homogenized in 2 mL screw cap microtubes filled with 1.4/2.8 mm ceramic beads and 1 mL Tissue Protein Extraction Reagent (T-PER, Thermo Fisher Scientific, Rockford, IL, USA) using a Percellys® 24 homogenizer (VWR International GmbH, Darmstadt, Germany). The homogenized retinal samples were then centrifuged at 14,000× g for 15 min at 4 °C. The protein-containing supernatant was exchanged in a 100 µL phosphate-buffered saline (PBS) using a 3 kDa Amicon® filtration unit (Millipore, Billerica, MA, USA) and, prior to this, was extensively washed in order to completely remove traces of the T-PER buffer. Afterwards, the samples were pooled and the protein concentration was determined using a Pierce Bicinchoninic Acid (BCA) Protein Assay Kit (Thermo Fisher Scientific, Rockford, IL, USA) according to the manufacturer’s protocol, which provided 5 mg aliquots for further analysis.
# The recombinant protein HTRA2 with a C-terminal 6xHis-tag motif (Novoprotein Scientific INC., Summit, NJ, USA) and 40 μL HisPurTM Ni-NTA magnetic beads (Thermo Fisher Scientific, Rockford, IL, USA) were spiked into 5 mg homogenized porcine retina. The experiment comprised of four groups: control homogenate (CTRL group), homogenate with 2 μg recombinant HTRA2 (HTRA2 group), homogenate with 2 μg recombinant HTRA2 and 10 μg UCF-101 (UCF-101 group), and homogenate with 2 μg recombinant HTRA2 and 10 μg synthetic CDR peptide (CDR group). The Co-IP of the recombinant HTRA2 and the enrichment of the respective interaction partners was performed with three independent biological replicates for each group (CTRL, HTRA2, UCF-101, and CDR group). After incubation at 4 °C overnight, the 6xHis-tagged protein HTRA2 with the bounded protein interaction partners (co-immunoprecipitation) was isolated with the previously added HisPurTM Ni-NTA magnetic beads (Thermo Fisher Scientific, Rockford, IL, USA) using a magnetic stand. Each bead group was washed twice with 400 μL PBS and the bounded HTRA2 including the protein interaction partners were eluted by pH shift. The protein concentration of each eluate fraction was determined as described above. Afterwards, 50 μg of each eluate fraction was evaporated using a speed vacuum concentrator (SpeedVac) (Eppendorf, Hamburg, Germany) for 45 min at 30 °C and was stored afterwards at −20 °C.
# The protein eluate fractions of each group (50 μg; n = 3 biological replicates per group) were separated by 1D SDS PAGE on 10-well NuPAGE® 12% Bis-Tris gels using NuPAGE™ MOPS SDS Running Buffer 20X (Thermo Fisher Scientific, Rockford, IL, USA). The 1D SDS PAGE was performed with the XCell SureLock^TM Mini-Cell Electrophoresis System (Thermo Fisher Scientific, Rockford, IL, USA) under denatured and reduced conditions, as already described in previous publications. The protein separation was performed for 2 h at 4 °C using 150 V, and then the gels were stained with the Novex Colloidal Blue Staining Kit (Thermo Fisher Scientific, Rockford, IL, USA) according to the manufacturer’s protocol. The next day, the gels were destained overnight and scanned using a DGP-9042 scanner (Brother Industries, Nagoya, Japan) at 600 dpi. In-gel trypsin digestion was performed as already described in previous publications. In brief, each protein lane was divided into 17 slices and was subsequently cut into small pieces. […]
smiles,measurement,setting,value
"O=C1C(=Cc2ccc(-c3ccccc3[N+](=O)[O-])o2)C(=O)N(c2ccccc2)C(=S)N1c1ccccc1 [UCF-101, reference compound]",FGF2 (Fibroblast growth factor 2) as significant interaction partner of HTRA2,HTRA2 alone: -,√ (Proteins fulfilled filtering criteria (p < 0.01; log2 fold change > 1.5))
same,FTH1 (Ferritin heavy chain) as significant interaction partner of HTRA2,HTRA2 alone: -,√ (Proteins fulfilled filtering criteria (p < 0.01; log2 fold change > 1.5))
same,GTF2F2 (General transcription factor IIF subunit 2) as significant interaction partner of HTRA2,HTRA2 alone: -,√ (Proteins fulfilled filtering criteria (p < 0.01; log2 fold change > 1.5))
same,NAPG (Gamma-soluble NSF attachment protein) as significant interaction partner of HTRA2,HTRA2 alone: -,- (Proteins failed to fulfill the filtering criteria (p > 0.01; log2 fold change < 1.5))
same,PDZD11 (PDZ domain-containing protein 11) as significant interaction partner of HTRA2,HTRA2 alone: -,√ (Proteins fulfilled filtering criteria (p < 0.01; log2 fold change > 1.5))
same,PGRMC1 (Membrane-associated progesterone receptor component 1) as significant interaction partner of HTRA2,HTRA2 alone: -,√ (Proteins fulfilled filtering criteria (p < 0.01; log2 fold change > 1.5))
same,PLRG1 (Pleiotropic regulator 1) as significant interaction partner of HTRA2,HTRA2 alone: -,- (Proteins failed to fulfill the filtering criteria (p > 0.01; log2 fold change < 1.5))
same,"POLR2E (DNA-directed RNA polymerases I, II, and III subunit RPABC1) as significant interaction partner of HTRA2",HTRA2 alone: -,- (Proteins failed to fulfill the filtering criteria (p > 0.01; log2 fold change < 1.5))
same,PPA1 (Inorganic pyrophosphatase) as significant interaction partner of HTRA2,HTRA2 alone: -,√ (Proteins fulfilled filtering criteria (p < 0.01; log2 fold change > 1.5))
same,SFRP1 (Secreted frizzled-related protein 1) as significant interaction partner of HTRA2,HTRA2 alone: -,- (Proteins failed to fulfill the filtering criteria (p > 0.01; log2 fold change < 1.5))
same,TUBA1C (Tubulin alpha-1C chain) as significant interaction partner of HTRA2,HTRA2 alone: -,- (Proteins failed to fulfill the filtering criteria (p > 0.01; log2 fold change < 1.5))
same,UBE2N (Ubiquitin-conjugating enzyme E2 N) as significant interaction partner of HTRA2,HTRA2 alone: -,√ (Proteins fulfilled filtering criteria (p < 0.01; log2 fold change > 1.5))
same,CDC42 (Cell division control protein 42 homolog) as significant interaction partner of HTRA2,HTRA2 alone: n.d.,√ (Proteins fulfilled filtering criteria (p < 0.01; log2 fold change > 1.5))
same,COPE (Coatomer subunit epsilon) as significant interaction partner of HTRA2,HTRA2 alone: n.d.,√ (Proteins fulfilled filtering criteria (p < 0.01; log2 fold change > 1.5))
same,"MRPL2 (39S ribosomal protein L2, mitochondrial) as significant interaction partner of HTRA2",HTRA2 alone: n.d.,- (Proteins failed to fulfill the filtering criteria (p > 0.01; log2 fold change < 1.5))
same,SNX3 (Sorting nexin-3) as significant interaction partner of HTRA2,HTRA2 alone: n.d.,√ (Proteins fulfilled filtering criteria (p < 0.01; log2 fold change > 1.5))
same,SOWAHA (Ankyrin repeat domain-containing protein SOWAHA) as significant interaction partner of HTRA2,HTRA2 alone: n.d.,- (Proteins failed to fulfill the filtering criteria (p > 0.01; log2 fold change < 1.5))
same,TIMM13 (Mitochondrial import inner membrane translocase subunit Tim13) as significant interaction partner of HTRA2,HTRA2 alone: n.d.,√ (Proteins fulfilled filtering criteria (p < 0.01; log2 fold change > 1.5))
same,TUBB8 (Tubulin beta-8 chain) as significant interaction partner of HTRA2,HTRA2 alone: n.d.,- (Proteins failed to fulfill the filtering criteria (p > 0.01; log2 fold change < 1.5))
same,ANK2 (Ankyrin-2) as significant interaction partner of HTRA2,HTRA2 alone: √,- (Proteins failed to fulfill the filtering criteria (p > 0.01; log2 fold change < 1.5))
same,AP2A1 (AP-2 complex subunit alpha-1) as significant interaction partner of HTRA2,HTRA2 alone: √,- (Proteins failed to fulfill the filtering criteria (p > 0.01; log2 fold change < 1.5))
same,AP3D1 (AP-3 complex subunit delta-1) as significant interaction partner of HTRA2,HTRA2 alone: √,- (Proteins failed to fulfill the filtering criteria (p > 0.01; log2 fold change < 1.5))
same,"AUH (Methylglutaconyl-CoA hydratase, mitochondrial) as significant interaction partner of HTRA2",HTRA2 alone: √,- (Proteins failed to fulfill the filtering criteria (p > 0.01; log2 fold change < 1.5))
same,"CS (Citrate synthase, mitochondrial) as significant interaction partner of HTRA2",HTRA2 alone: √,- (Proteins failed to fulfill the filtering criteria (p > 0.01; log2 fold change < 1.5))
same,CSTB (Cystatin-B) as significant interaction partner of HTRA2,HTRA2 alone: √,- (Proteins failed to fulfill the filtering criteria (p > 0.01; log2 fold change < 1.5))
same,"DNAJA3 (DnaJ homolog subfamily A member 3, mitochondrial) as significant interaction partner of HTRA2",HTRA2 alone: √,- (Proteins failed to fulfill the filtering criteria (p > 0.01; log2 fold change < 1.5))
same,DTD1 (D-aminoacyl-tRNA deacylase 1) as significant interaction partner of HTRA2,HTRA2 alone: √,- (Proteins failed to fulfill the filtering criteria (p > 0.01; log2 fold change < 1.5))
same,EIF2S3 (Eukaryotic translation initiation factor 2 subunit 3) as significant interaction partner of HTRA2,HTRA2 alone: √,- (Proteins failed to fulfill the filtering criteria (p > 0.01; log2 fold change < 1.5))
same,FAM30A (Putative uncharacterized protein FAM30A) as significant interaction partner of HTRA2,HTRA2 alone: √,- (Proteins failed to fulfill the filtering criteria (p > 0.01; log2 fold change < 1.5))
same,FLNA (Filamin-A) as significant interaction partner of HTRA2,HTRA2 alone: √,- (Proteins failed to fulfill the filtering criteria (p > 0.01; log2 fold change < 1.5))
same,GDI1 (Rab GDP dissociation inhibitor alpha) as significant interaction partner of HTRA2,HTRA2 alone: √,- (Proteins failed to fulfill the filtering criteria (p > 0.01; log2 fold change < 1.5))
same,GLO1 (Lactoylglutathione lyase) as significant interaction partner of HTRA2,HTRA2 alone: √,- (Proteins failed to fulfill the filtering criteria (p > 0.01; log2 fold change < 1.5))
same,GNL1 (Guanine nucleotide-binding protein-like 1) as significant interaction partner of HTRA2,HTRA2 alone: √,- (Proteins failed to fulfill the filtering criteria (p > 0.01; log2 fold change < 1.5))
same,"HAGH (Hydroxyacylglutathione hydrolase, mitochondrial) as significant interaction partner of HTRA2",HTRA2 alone: √,- (Proteins failed to fulfill the filtering criteria (p > 0.01; log2 fold change < 1.5))
same,"HTRA2 (Serine protease HTRA2, mitochondrial; target protein) enriched",HTRA2 alone: √,√ (Proteins fulfilled filtering criteria (p < 0.01; log2 fold change > 1.5))
same,HYOU1 (Hypoxia up-regulated protein 1) as significant interaction partner of HTRA2,HTRA2 alone: √,- (Proteins failed to fulfill the filtering criteria (p > 0.01; log2 fold change < 1.5))
same,"ME2 (NAD-dependent malic enzyme, mitochondrial) as significant interaction partner of HTRA2",HTRA2 alone: √,- (Proteins failed to fulfill the filtering criteria (p > 0.01; log2 fold change < 1.5))
same,NCKAP1 (Nck-associated protein 1) as significant interaction partner of HTRA2,HTRA2 alone: √,- (Proteins failed to fulfill the filtering criteria (p > 0.01; log2 fold change < 1.5))
same,PACS1 (Phosphofurin acidic cluster sorting protein 1) as significant interaction partner of HTRA2,HTRA2 alone: √,- (Proteins failed to fulfill the filtering criteria (p > 0.01; log2 fold change < 1.5))
same,POTEE (POTE ankyrin domain family member E) as significant interaction partner of HTRA2,HTRA2 alone: √,- (Proteins failed to fulfill the filtering criteria (p > 0.01; log2 fold change < 1.5))
same,PTGES3 (Prostaglandin E synthase 3) as significant interaction partner of HTRA2,HTRA2 alone: √,√ (Proteins fulfilled filtering criteria (p < 0.01; log2 fold change > 1.5))
same,"SHMT2 (Serine hydroxymethyltransferase, mitochondrial) as significant interaction partner of HTRA2",HTRA2 alone: √,- (Proteins failed to fulfill the filtering criteria (p > 0.01; log2 fold change < 1.5))
same,"SPTBN1 (Spectrin beta chain, non-erythrocytic 1) as significant interaction partner of HTRA2",HTRA2 alone: √,- (Proteins failed to fulfill the filtering criteria (p > 0.01; log2 fold change < 1.5))
same,UBE2V1 (Ubiquitin-conjugating enzyme E2 variant 1) as significant interaction partner of HTRA2,HTRA2 alone: √,√ (Proteins fulfilled filtering criteria (p < 0.01; log2 fold change > 1.5))
